Consider six compounds from ChEMBL document CHEMBL3580534, “Antibacterial Biphenanthrenes from the Fibrous Roots of Bletilla striata” (2015).

≈ marks a conversion by molar mass, not a printed value.

What all share (format): functional
For one assay, the system named is Enterococcus faecalis. The experiment in a line: Antimicrobial activity against Enterococcus faecalis ATCC 29212 assessed as complete prevention of visible growth after incubation at 37 degC for 18 to 20 hrs.
Assay [1] has as its system Staphylococcus aureus. The experiment in a line: Antimicrobial activity against methicillin-resistant Staphylococcus aureus ATCC 43300 assessed as complete prevention of visible growth after incubation at 37 degC for 18 to 20 hrs.
The test system of the next assay is Proteus vulgaris. The experiment in a line: Antimicrobial activity against Proteus vulgaris CMCC 49027 assessed as complete prevention of visible growth after incubation at 37 degC for 18 to 20 hrs.
For assay [2], the system named is Staphylococcus aureus. The experiment in a line: Antimicrobial activity against ampicillin-resistant Staphylococcus aureus ATCC 29213 assessed as complete prevention of visible growth after incubation at 37 degC for 18 to 20 hrs.
Assay [3] concerns Staphylococcus aureus. Kind of assay: Antimicrobial activity against Staphylococcus aureus ATCC 25923 assessed as complete prevention of visible growth after incubation at 37 degC for 18 to 20 hrs.
The test system of the next assay is Escherichia coli. The experiment in a line: Antimicrobial activity against Escherichia coli ATCC 35218 assessed as complete prevention of visible growth after incubation at 37 degC for 18 to 20 hrs.
In another assay the test system is Bacillus subtilis. The experiment in a line: Antimicrobial activity against Bacillus subtilis CGMCC 1.1470 assessed as complete prevention of visible growth after incubation at 37 degC for 18 to 20 hrs.
In assay [4] the test system is Staphylococcus epidermidis. Kind of assay: Antimicrobial activity against Staphylococcus epidermidis CMCC 26069 assessed as complete prevention of visible growth after incubation at 37 degC for 18 to 20 hrs.

`COc1ccc2c(ccc3c(-c4cc5c(cc4OC)-c4c(cc(O)cc4OC)CC5)c(O)cc(OC)c32)c1`: the MIC in the assay with Enterococcus faecalis, with Staphylococcus aureus [1], in the assay on Proteus vulgaris, in the assay with Staphylococcus aureus [2], with Staphylococcus aureus [3] and in the assay with Escherichia coli was greater than 128 µg/mL in each case. Besides, the MIC (with Bacillus subtilis; in assay [4]) was greater than 128 µg/mL in each case.

Turning to `COc1cc(O)c2c(c1)CCc1cc(O)c(-c3c(O)cc(OC)c4c3ccc3cc(OC)ccc34)cc1-2`, the MIC with Enterococcus faecalis was 64 µg/mL (≈ 129 µM); in the assay with Staphylococcus aureus [1] it was 8 µg/mL (≈ 16.2 µM); in the assay with Proteus vulgaris, greater than 128 µg/mL; in the assay on Staphylococcus aureus [2] it was 8 µg/mL (≈ 16.2 µM); in the assay with Staphylococcus aureus [3] it was 8 µg/mL (≈ 16.2 µM); in the assay on Escherichia coli it was greater than 128 µg/mL. For the same compound, the results for the MIC (in the assay on Bacillus subtilis; in assay [4]) were 16 µg/mL (≈ 32.4 µM) and 8 µg/mL (≈ 16.2 µM), respectively.

Turning to `COc1ccc2c(ccc3c(-c4c(O)cc(OC)c5c4CCc4cc(O)ccc4-5)c(O)cc(OC)c32)c1`, the MIC in the assay on Enterococcus faecalis was 4 µg/mL (≈ 8.09 µM); with Staphylococcus aureus [1], 4 µg/mL (≈ 8.09 µM); in the assay on Proteus vulgaris, greater than 128 µg/mL; with Staphylococcus aureus [2] it was 2 µg/mL (≈ 4.04 µM); with Staphylococcus aureus [3], 4 µg/mL (≈ 8.09 µM); in the assay with Escherichia coli, greater than 128 µg/mL. The MIC (in the assay with Bacillus subtilis; in assay [4]) was 4 µg/mL (≈ 8.09 µM) each time.

In the case of `COc1c(O)ccc2c1ccc1c(-c3c(O)cc(OC)c4c3ccc3c(OC)c(O)ccc34)c(O)cc(OC)c12`, the MIC with Enterococcus faecalis is 64 µg/mL (≈ 119 µM); in the assay with Staphylococcus aureus [1] it was 16 µg/mL (≈ 29.7 µM); with Proteus vulgaris it was greater than 128 µg/mL; with Staphylococcus aureus [2], 8 µg/mL (≈ 14.9 µM); in the assay on Staphylococcus aureus [3], 16 µg/mL (≈ 29.7 µM); in the assay on Escherichia coli, greater than 128 µg/mL. Also, the MIC (in the assay on Bacillus subtilis; in assay [4]) was 8 µg/mL (≈ 14.9 µM) throughout.

Take `CC1(C)S[C@@H]2[C@H](NC(=O)[C@H](N)c3ccccc3)C(=O)N2[C@H]1C(=O)O` [AMPICILLIN]: the MIC in the assay on Enterococcus faecalis was 4 µg/mL (≈ 11.4 µM); in the assay with Staphylococcus aureus [1], greater than 8 µg/mL; with Proteus vulgaris it was greater than 8 µg/mL; in the assay with Staphylococcus aureus [2], 8 µg/mL (≈ 22.9 µM); with Staphylococcus aureus [3], 0.125 µg/mL (≈ 0.358 µM); in the assay with Escherichia coli, greater than 8 µg/mL. Also, the results for the MIC (in the assay with Bacillus subtilis; in assay [4]) were greater than 8 µg/mL and 8 µg/mL (≈ 22.9 µM), respectively.

Turning to `COc1cc(O)c(-c2c(O)cc(OC)c3c2ccc2cc(O)ccc23)c2ccc3cc(O)ccc3c12` [CIRRHOPETALANTHIN], the MIC was 16 µg/mL (≈ 33.4 µM) in the assay with Enterococcus faecalis; 16 µg/mL (≈ 33.4 µM) in the assay on Staphylococcus aureus [1]; greater than 128 µg/mL in the assay on Proteus vulgaris; 16 µg/mL (≈ 33.4 µM) in the assay on Staphylococcus aureus [2]; 32 µg/mL (≈ 66.9 µM) in the assay with Staphylococcus aureus [3]; greater than 128 µg/mL in the assay on Escherichia coli. Further, the values for the MIC (in the assay with Bacillus subtilis; in assay [4]) were 8 µg/mL (≈ 16.7 µM) and 16 µg/mL (≈ 33.4 µM), respectively.

What is called MIC is the smallest concentration in the dilution series that meets the test's criterion for growth inhibition.
